Reference: ChEMBL document CHEMBL1201862, “PubChem BioAssay data set” (2004)
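Exposure lasted 48 hours, with cells grown in 96-well plates and compounds tested at five concentrations. GI50 is the concentration that inhibits growth by half.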 Activity calls are given as the source filed them. Rule as the data show it: active = GI50 up to about 1.1 µM and inactive = higher.

Assays:
Assay in all cases: NCI anticancer screen, dose series, 48 h
CAKI-1 = test system: CAKI-1
HCT-15 = test system: HCT-15
IGROV-1 = test system: IGROV-1
LOX IMVI = test system: LOX IMVI
MCF7 = test system: MCF7
MDA-MB-231 = test system: MDA-MB-231
Malme-3M = test system: Malme-3M
RXF 393 = test system: RXF 393
SF-539 = test system: SF-539
SK-MEL-2 = test system: SK-MEL-2
SK-MEL-5 = test system: SK-MEL-5
SK-OV-3 = test system: SK-OV-3
SW-620 = test system: SW-620
TK-10 = test system: TK-10
U-251 = test system: U-251
UACC-257 = test system: UACC-257
K562 = test system: K562
OVCAR-4 = test system: OVCAR-4
SNB-75 = test system: SNB-75
RPMI-8226 = test system: RPMI-8226

SMILES	GI50 (CAKI-1)	GI50 (HCT-15)	GI50 (IGROV-1)	GI50 (LOX IMVI)	GI50 (MCF7)	GI50 (MDA-MB-231)	GI50 (Malme-3M)	GI50 (RXF 393)	GI50 (SF-539)	GI50 (SK-MEL-2)	GI50 (SK-MEL-5)	GI50 (SK-OV-3)	GI50 (SW-620)	GI50 (TK-10)	GI50 (U-251)	GI50 (UACC-257)	GI50 (K562)	GI50 (OVCAR-4)	GI50 (SNB-75)	GI50 (RPMI-8226)
C=C(CCC=C(C)C)C1CC=C(C)CC1 (configuration not stated)	19.7 µM (inactive)	18.2 µM	13.6 µM (inactive)	5.48 µM (inactive)	19.8 µM (inactive)	30.6 µM (inactive)	> 100 µM (inactive)	13.9 µM (inactive)	25.9 µM (inactive)	17.7 µM (inactive)	16.6 µM (inactive)	> 100 µM (inactive)	22.9 µM (inactive)	38.5 µM (inactive)	18 µM (inactive)	> 100 µM (inactive)	–	–	–	–
CN(C(=O)C12C3C4C1C1C2C3C41C(=O)O)C(C)(C)C (configuration not stated)	> 100 µM (inactive)	> 100 µM	> 100 µM (inactive)	> 100 µM (inactive)	> 100 µM (inactive)	> 100 µM (inactive)	–	> 100 µM (inactive)	> 100 µM (inactive)	> 100 µM (inactive)	> 100 µM (inactive)	–	> 100 µM (inactive)	> 100 µM (inactive)	> 100 µM (inactive)	> 100 µM (inactive)	> 100 µM (inactive)	> 100 µM (inactive)	> 100 µM (inactive)	–
COc1ccccc1NCc1cccc2c(=O)c3ccc(Cl)cc3oc12	> 100 µM (inactive)	> 100 µM	56 µM (inactive)	> 100 µM (inactive)	28.1 µM (inactive)	> 100 µM (inactive)	34.7 µM (inactive)	–	65.2 µM (inactive)	49.1 µM (inactive)	> 100 µM (inactive)	> 100 µM (inactive)	76.9 µM (inactive)	> 100 µM (inactive)	33.5 µM (inactive)	60.5 µM (inactive)	47.1 µM (inactive)	> 100 µM (inactive)	28 µM (inactive)	39.3 µM (inactive)
O=C(O)CNc1ccc(Cl)c(Cl)c1	17.9 µM (inactive)	8.83 µM	1.1 µM (active)	35.2 µM (inactive)	13.9 µM (inactive)	45.3 µM (inactive)	–	35.3 µM (inactive)	33.5 µM (inactive)	–	26.5 µM (inactive)	37.8 µM (inactive)	23.9 µM (inactive)	20 µM (inactive)	31.1 µM (inactive)	26.7 µM (inactive)	25.1 µM (inactive)	31.6 µM (inactive)	26.6 µM (inactive)	21.9 µM (inactive)
[N-]=[N+]=NI1OC(=O)c2ccccc21	23.8 µM (inactive)	50.7 µM	> 100 µM (inactive)	90.2 µM (inactive)	93.5 µM (inactive)	> 100 µM (inactive)	–	32.2 µM (inactive)	> 100 µM (inactive)	> 100 µM (inactive)	–	> 100 µM (inactive)	65.3 µM (inactive)	> 100 µM (inactive)	92.9 µM (inactive)	> 100 µM (inactive)	36.6 µM (inactive)	> 100 µM (inactive)	> 100 µM (inactive)	24 µM (inactive)
CC(C)=CCC[C@]1(C)CC[C@]2(C)C3CCC(=C(C)C)[C@@H](CCCO)[C@]3(C)CC[C@@]2(C)C1 (some centres not stated)	95.7 µM (inactive)	34 µM	18.8 µM (inactive)	–	24 µM (inactive)	29.8 µM (inactive)	> 100 µM (inactive)	–	–	18.8 µM (inactive)	> 100 µM (inactive)	> 100 µM (inactive)	53.8 µM (inactive)	20.2 µM (inactive)	23.6 µM (inactive)	24 µM (inactive)	–	> 100 µM (inactive)	0.0243 µM (active)	26.5 µM (inactive)
CC1Cc2c(Br)nc(N)nc2NC1=O (configuration not stated)	> 100 µM (inactive)	> 100 µM	> 100 µM (inactive)	> 100 µM (inactive)	> 100 µM (inactive)	> 100 µM (inactive)	> 100 µM (inactive)	–	> 100 µM (inactive)	> 100 µM (inactive)	> 100 µM (inactive)	> 100 µM (inactive)	> 100 µM (inactive)	> 100 µM (inactive)	> 100 µM (inactive)	> 100 µM (inactive)	> 100 µM (inactive)	> 100 µM (inactive)	> 100 µM (inactive)	> 100 µM (inactive)
CC(C)OC(=O)Nc1cccc(Cl)c1 [CHLORPROPHAM]	> 100 µM (inactive)	83.6 µM	> 100 µM (inactive)	> 100 µM (inactive)	> 100 µM (inactive)	> 100 µM (inactive)	–	> 100 µM (inactive)	> 100 µM (inactive)	> 100 µM (inactive)	> 100 µM (inactive)	> 100 µM (inactive)	> 100 µM (inactive)	> 100 µM (inactive)	87.1 µM (inactive)	> 100 µM (inactive)	89.9 µM (inactive)	> 100 µM (inactive)	40.7 µM (inactive)	> 100 µM (inactive)
